Measurements taken from patent publication US9221827B2, “Antimicrobial compounds and methods of making and using the same” (Melinta Therapeutics, Inc., priority 2011, dated 2015).

These compounds were tested on Escherichia coli strain ATCC25922 (assay: standard microdilution assay to determine minimum inhibitory concentrations (MICs)). Settings: Escherichia coli strain ATCC25922, microdilution.
Assay type: cell-based
Method in brief: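 MICs come from CLSI-guided microdilution in 100 μl, run alongside reference-strain performance standards. Values appear as "+" or "−" relative to 16 micrograms/ml, with "N/A" marking missing data.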

| SMILES | E. coli ATCC25922 MIC |
| --- | --- |
| CC(N)CCCc1cc(SC(F)(F)F)cc(-c2cc3cn(-c4ccc(C(NCCCNC(=N)N)C(=O)O)cc4)c(=O)nc3[nH]2)c1 (centres unmarked) [Compound 503] | − (a “−” indicates that the compound has an MIC value greater than 16 micrograms/ml) |
| CC(N)CCCc1cc(-c2cc3cn(-c4ccc(C(C)NCCCNC(=N)N)cc4)c(=O)nc3[nH]2)cc(C(O)C(F)(F)F)c1 (centres unmarked) [Compound 504] | + (a “+” indicates that the compound has an MIC value of 16 micrograms/ml or less) |
| CC(N)CCCc1cc(-c2cc3cn(-c4ccc(C(CCO)NCCCNC(=N)N)cc4)c(=O)nc3[nH]2)cc(C(F)(F)F)c1 (centres unmarked) [Compound 505] | + (a “+” indicates that the compound has an MIC value of 16 micrograms/ml or less) |
| CC(N)CCCc1cc(Cl)c(F)c(-c2cc3cn(-c4ccc(C(CCO)NCCCNC(=N)N)cc4)c(=O)nc3[nH]2)c1 (centres unmarked) [Compound 506] | + (a “+” indicates that the compound has an MIC value of 16 micrograms/ml or less) |
| CC(N)CCCc1cc(SC(F)(F)F)cc(-c2cc3cn(-c4ccc(C(CCO)NCCCNC(=N)N)cc4)c(=O)nc3[nH]2)c1 (centres unmarked) [Compound 507] | + (a “+” indicates that the compound has an MIC value of 16 micrograms/ml or less) |
